Strand notation (5' to 3'): a small letter for the sugar, then the base; units joined by * are phosphorothioate-linked, units joined directly phosphodiester-linked; [ ] holds rarer units or linkages, { } end groups; capitals alone tell only the bases. d = 2'-deoxy (DNA); m = 2'-O-methyl; r = 2'-OH (RNA)
Test system: Kif11 mRNA
Experiment: In vivo administration of LNPs to mice, H&E histopathology of aberrant mitotic figures
Settings: mouse bone marrow, 5 consecutive high power (400×) microscopic fields per sample
Description: In Vivo Administration. Selected LNPs were dosed IV via tail vein injection on three successive days and the indicated tissues (see FIG. 11-13) were harvested and fixed in 10% zinc-formalin overnight, processed, paraffin embedded, sectioned at 5 μm, and stained with hematoxylin and eosin for histopathology assessment. In vivo delivery and Kif11 knockdown was shown with an increase in aberrant mitotic figures as a surrogate for Kif11 mRNA loss in murine liver, spleen and bone marrow tissue. Mitotic figures refer to chromosome aggregation during mitosis.

## LUC: control siRNA targeting Firefly Luciferase mRNA, 21 nucleotides, SEQ ID 3 and 4 (chain 1 mCmUmUrAmCrGmCmUrGrArGmUrAmCmUmUmCrGrAdT*dT; chain 2 rUrCrGrArArGmUrArCrUmCrArGrCrGmUrArArGdT*dT; listed as Photinus pyralis)
  Average no. of aberrant mitotic figures: 0

— patent US20130072543A1, “Compounds and Compositions for Nucleic Acid Formulation and Delivery” (ARROWHEAD RESEARCH CORPORATION, priority 2011, published 2013)
